PubChem BioAssay AID1896 (NMMLSC, 2009)
Activity calls are given as the source filed them. The rule behind the calls is not given here.

Biological target: Mitogen-activated protein kinase kinase kinase 3 (Homo sapiens) (UniProt Q99759)
Test: MEKK3 PB1-MEK5 interaction blockers – biochemical, bead multiplex flow cytometry, wildtype, dose response (AID 1896)
Conditions: bead-based multiplex flow cytometry, MEK5-MEKK3 PB1 binding; for Ki: measured here: Ki from EC50

Sequence of Mitogen-activated protein kinase kinase kinase 3 (Homo sapiens) (Q99759 whole entry, looked up): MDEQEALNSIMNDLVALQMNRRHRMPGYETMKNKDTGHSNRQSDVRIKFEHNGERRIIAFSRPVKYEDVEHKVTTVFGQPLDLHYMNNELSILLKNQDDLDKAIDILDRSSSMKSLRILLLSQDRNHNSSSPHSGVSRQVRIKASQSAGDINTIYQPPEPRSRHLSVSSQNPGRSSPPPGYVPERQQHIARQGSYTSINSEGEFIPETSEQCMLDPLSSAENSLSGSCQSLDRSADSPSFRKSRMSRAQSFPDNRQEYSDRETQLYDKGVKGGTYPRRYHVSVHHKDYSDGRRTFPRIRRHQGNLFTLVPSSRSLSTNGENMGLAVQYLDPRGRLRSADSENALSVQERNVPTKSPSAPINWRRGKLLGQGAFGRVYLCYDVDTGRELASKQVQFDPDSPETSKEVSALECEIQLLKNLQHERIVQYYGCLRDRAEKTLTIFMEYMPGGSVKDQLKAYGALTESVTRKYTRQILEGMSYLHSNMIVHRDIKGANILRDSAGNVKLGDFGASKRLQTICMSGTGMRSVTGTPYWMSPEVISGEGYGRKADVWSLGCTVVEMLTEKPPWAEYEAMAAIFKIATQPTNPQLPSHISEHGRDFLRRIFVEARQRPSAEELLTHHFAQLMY

Compound | EC50 | Ki
C#CCOCCOCCOCCNc1nc(N2CCN(C(=O)[C@H]([C@@H](C)CC)n3cc([C@@H](N)Cc4ccc(O)cc4)nn3)CC2)nc(N2CCN(C(=O)[C@H](Cc3cc4ccccc4[nH]3)n3cc([C@@H](N)C(C)CC)nn3)CC2)n1 (stereo partly drawn) | > 30 µM (inactive) | 
COc1ccc(C(CCNCc2ccc(OC(C)C)cc2)c2ccccc2OC)cc1 (stereo not drawn) | > 30 µM (inactive) | 
COc1ccc(Cn2c(SCc3ccc(C)cc3)nc3cc(OC)c(OC)cc3c2=N)cc1Cl | > 30 µM (inactive) | 
CS(=O)(=O)N1N=C(c2ccccc2)CC1c1ccc2c(c1)OCO2 (stereo not drawn) | > 30 µM (inactive) | 
CC(C)n1cc(CN2CCC(C(=O)Nc3cccc(-c4cccc(Cl)c4)c3)CC2)cn1 | > 30 µM (inactive) | 
C=CC#CC[N+]1(CC#Cc2ccccc2)CCOCC1 | > 30 µM (inactive) | 
CCCCCCOc1ccc(/C(C)=N/NC2=NCCN2)cc1[N+](=O)[O-] | > 30 µM (inactive) | 
C#CCOCCOCCOCCNc1nc(N2CCN(C(=O)[C@H]([C@@H](C)CC)n3cc([C@@H](N)CO)nn3)CC2)nc(N2CCN(C(=O)[C@H](Cc3cc4ccccc4[nH]3)n3cc([C@@H](N)C(C)CC)nn3)CC2)n1 (stereo partly drawn) | > 30 µM (inactive) | 
COc1ccc(Cn2c(SCc3ccccc3C)nc3cc(OC)c(OC)cc3c2=N)cc1 | > 30 µM (inactive) | 
COc1ccc2[nH]c3c(C)c4ccncc4c(C)c3c2c1 | > 30 µM (inactive) | 
CCOC(=O)C1=C(c2ccccc2)NC(N)=NC1c1ccc(OCc2ccc(Cl)cc2)c(OC)c1 (stereo not drawn) | > 30 µM (inactive) | 
CN(c1ccccc1)c1ccc(/C=c2\s/c(=C(/C#N)C(=O)C(C)(C)C)n(Cc3ccco3)c2=O)cc1 | 0.34 µM | 0.29 µM
CC(C)N=c1cc2n(-c3ccc(Cl)cc3)c3ccccc3nc-2cc1Nc1ccc(Cl)cc1 | > 30 µM (inactive) | 
CCN1/C(=C/c2ccc3cc(C)ccc3[n+]2C)Sc2ccc3sccc3c21 | > 30 µM (inactive) | 
COc1cc2nc(N3CCN(c4cc(C)ccc4C)CC3)nc(N)c2cc1OC | > 30 µM (inactive) | 
Cc1ccc(-c2c[n+](CC(=O)Nc3nc(-c4ccc(F)cc4)cs3)c3n2CCC3)cc1 | > 30 µM (inactive) | 
CCCCCCCCCCOC(=O)Cn1c(COc2ccccc2C)[n+](C)c2ccccc21 | > 30 µM (inactive) | 
CCN1CCN(CCNC(=O)c2ccc(/C=C3/Sc4ccccc4N(Cc4cccc(Cl)c4)C3=O)cc2)CC1 | > 30 µM (inactive) | 
COc1ccc2nc(C)cc(N/N=C/c3ccc(F)cc3)c2c1 | 8.75 µM | 7.49 µM
CC[C@@H](C)[C@H](CNC)NC[C@@H](Cc1cccc2ccccc12)NCCc1cccc(C(F)(F)F)c1 | > 30 µM (inactive) | 
CCOC(=O)c1c(-c2ccc(-c3ccccc3)cc2)csc1NC(=O)CNCCN(C)C | > 30 µM (inactive) | 

Compound | EC50 | Ki
CCCCn1c(O)c(/C=C/C=C/C=Nc2ccccc2)sc1=S | 1.29 µM | 1.1 µM
O=C1Nc2ccc(Br)cc2/C1=N/N=C/C1=C(N2CCOCC2)C(=C\c2ccccc2)/CC1 | 1.76 µM | 1.5 µM
CN(C)CCCN(C(=O)c1ccc2c(c1)CCCC2)c1nc2ccc(Cl)cc2s1 | > 30 µM (inactive) | 
CCN(CC)CCOC(=O)c1ccc(N/C=C(/C#N)c2nc(-c3ccc4c(c3)OCO4)cs2)cc1 | > 30 µM (inactive) | 
CSc1cccc(NC(=S)N(CCCN2CCCC2)Cc2cccn2Cc2ccc(Cl)cc2)c1 | > 30 µM (inactive) | 
CCCCCc1cc(=O)oc2c(C(CCN3CCCCC3)c3ccc4c(c3)OCO4)c(OC)cc(OC)c12 (stereo not drawn) | > 30 µM (inactive) | 
CCN(CC)CCOC(=O)c1ccc(N/C=C(/C#N)c2nc(-c3cccc(OC)c3)cs2)cc1 | > 30 µM (inactive) | 
C#CCOCCOCCOCCNc1nc(N2CCN(C(=O)C(Cc3ccc(O)cc3)n3cc(C(N)CC(C)C)nn3)CC2)nc(N2CCN(C(=O)C(Cc3cc4ccccc4[nH]3)n3cc(C(N)Cc4ccc(O)cc4)nn3)CC2)n1 (stereo not drawn) | > 30 µM (inactive) | 
C#CCOCCOCCOCCNc1nc(N2CCN(C(=O)[C@H](Cc3cc4ccccc4[nH]3)n3cc([C@@H](N)C(C)CC)nn3)CC2)nc(N2CCN(C(=O)[C@H](Cc3cc4ccccc4[nH]3)n3cc([C@@H](N)CC(C)C)nn3)CC2)n1 (stereo partly drawn) | > 30 µM (inactive) | 
S=C(Nc1cccc(Cl)c1)N(CCCN1CCCC1)Cc1cccn1Cc1ccc(Cl)cc1 | > 30 µM (inactive) | 
CCc1ccc(Nc2n[n+](-c3ccccc3)c(-c3ccc(OC)c(Br)c3)s2)cc1 | > 30 µM (inactive) | 
COc1cc(/C=N/NC(=O)c2cc3ccccc3cc2O)ccc1OCCN1CCCCC1 | > 30 µM (inactive) | 
CCOC(=O)c1c(CSC(=N)N)n(-c2ccc(C)cc2)c2cc(Br)c(OC(C)=O)cc12 | > 30 µM (inactive) | 
NC(N)=N/N=C/c1ccc(OCc2ccccc2Cl)cc1 | > 30 µM (inactive) | 
Cc1nc(N)sc1-c1csc(Nc2ncccn2)n1 | > 30 µM (inactive) | 
CCN1/C(=C/C(C)=C/c2sc3ccccc3[n+]2CC)Sc2ccccc21 | 1.01 µM | 0.86 µM
CCc1ccc(-c2nn(-c3ccccc3)cc2CSC(=N)N)cc1 | > 30 µM (inactive) | 
COc1ccc(-c2cc(C#N)nc(N3CCNCC3)n2)cc1 | > 30 µM (inactive) | 
CCCCCCCCCCCCCCCC[n+]1cccc2ccccc21 | > 30 µM (inactive) | 
COc1ccc(/C=N/Nc2cc(C)nc3ccc(Br)cc23)cc1 | > 30 µM (inactive) | 

Now from value to molecule:

EC50 | Ki | Compound
> 30 µM (inactive) |  | Cc1ccc(-c2csc(NC(=O)C[n+]3cc(-c4ccc(C)cc4)n4c3CCC4)n2)cc1
2.52 µM | 2.15 µM | CCN(CC)CCOC(=O)c1ccc(N/C=C(/C#N)c2nc(-c3ccc(OC)c(OC)c3)cs2)cc1
> 30 µM (inactive) |  | CCCCCCCCCCOC(=O)Cn1c(COc2ccc(C)cc2)[n+](C)c2ccccc21
> 30 µM (inactive) |  | Nc1ccc2nc(-c3ccc(-c4nc5ccc(N)cc5[nH]4)cc3)[nH]c2c1
> 30 µM (inactive) |  | CCN(Cc1ccccc1)S(=O)(=O)c1ccc(C(=O)N(CCCN(C)C)c2nc3ccc(F)cc3s2)cc1
> 30 µM (inactive) |  | C#CCOCCOCCOCCNc1nc(N2CCN(C(=O)[C@H](CCC(=O)O)n3cc(C(N)CO)nn3)CC2)nc(N2CCN(C(=O)[C@H](Cc3cc4ccccc4[nH]3)n3cc(C(N)[C@H](C)CC)nn3)CC2)n1 (stereo partly drawn)
3.06 µM | 2.62 µM | Nc1ccc(N)c(C(=O)O)c1
> 30 µM (inactive) |  | C#CCOCCOCCOCCNc1nc(N2CCN(C(=O)[C@H]([C@@H](C)CC)n3cc([C@@H](N)CC(C)C)nn3)CC2)nc(N2CCN(C(=O)[C@H](Cc3cc4ccccc4[nH]3)n3cc([C@@H](N)CC(C)C)nn3)CC2)n1
> 30 µM (inactive) |  | O=[N+]([O-])c1ccc(/C=C/C2=NN(c3ccccc3)C(c3ccco3)C2)o1 (stereo not drawn)
> 30 µM (inactive) |  | COc1ccc(CSc2n[nH]c(C)n2)cc1[N+](=O)[O-]
> 30 µM (inactive) |  | COc1ccc2nc(C)cc(N/N=C/c3cccc(OC)c3O)c2c1
5.37 µM | 4.59 µM | COc1cccc(OC)c1-c1nn2c(-c3cc(-c4ccccc4)n[nH]3)nnc2s1
> 30 µM (inactive) |  | Cc1ccc(-n2cc(CNCCCn3ccnc3C)c(-c3ccc(F)cc3)n2)cc1
1.13 µM | 0.97 µM | COc1ccc(-n2nc3c(N)n[nH]c3cc2=O)cc1
> 30 µM (inactive) |  | CN1CCN(CC(O)COc2ccc(C34CC5CC(CC(C5)C3)C4)cc2)CC1 (stereo not drawn)
25.2 µM | 21.5 µM | Cc1nc(Nc2cnc(/C=C/c3cc(C(=O)Nc4cccc(C(F)(F)F)c4)ccc3C)cn2)cc(N2CCNCC2)n1
1.21 µM | 1.03 µM | CN(C)c1ccc(/C=C/C=C2/SC(=S)N(c3ccccc3)C2=O)cc1
> 30 µM (inactive) |  | Cc1c2cc(O)c(=O)cc-2oc2cc(O)c(O)cc12

EC50 | Ki | Compound
> 30 µM (inactive) |  | CC(=O)Nc1ccc(OCC(O)Cn2c3ccccc3c3ccccc32)cc1 (stereo not drawn)
> 30 µM (inactive) |  | C#CCOCCOCCOCCNc1nc(N2CCN(C(=O)[C@H](Cc3cc4ccccc4[nH]3)n3cc([C@@H](N)C(C)CC)nn3)CC2)nc(N2CCN(C(=O)[C@H](CCCCN)n3cc([C@@H](N)CC(C)C)nn3)CC2)n1 (stereo partly drawn)
> 30 µM (inactive) |  | CCC(/C=C1\Sc2ccc(OC)cc2N1CC)=C\c1sc2ccc(OC)cc2[n+]1CCCS(=O)(=O)[O-]
> 30 µM (inactive) |  | COc1ccc(CNC[C@@H](CCCCN(C)Cc2ccc(OC)cc2)N2C[C@H](c3ccccc3)N(CCc3ccc(Cl)c(Cl)c3)C(=O)C2=O)cc1
> 30 µM (inactive) |  | COCc1c(C#N)c(NCCc2ccccc2)nc(C)c1[N+](=O)[O-]
> 30 µM (inactive) |  | CC(=O)c1c(C)[nH]c(C(=O)NC2=NCCS2)c1C
> 30 µM (inactive) |  | Cc1sc(NC(=O)c2ccccc2)c(C(c2ccccn2)N2CCN(CCO)CC2)c1C (stereo not drawn)
> 30 µM (inactive) |  | CN(C)c1ccc(NC(=O)CN2CCC(O)(c3ccccc3)CC2)cc1
> 30 µM (inactive) |  | Cc1ccc(CN2CCSc3ccc(C(=O)NC4CCN(Cc5ccccc5)CC4)cc32)cc1
> 30 µM (inactive) |  | C#CCOCCOCCOCCNc1nc(N2CCN(C(=O)[C@H](Cc3cc4ccccc4[nH]3)n3cc([C@@H](N)CC(C)C)nn3)CC2)nc(N2CCN(C(=O)[C@H](Cc3cc4ccccc4[nH]3)n3cc([C@@H](N)CC(C)C)nn3)CC2)n1
> 30 µM (inactive) |  | COc1ccc2nc3cc(Cl)ccc3c(Nc3cc(C(C)C)c(O)cc3C)c2c1
> 30 µM (inactive) |  | CCOC(=O)C(C(=O)OCC)c1cc(Br)c2noc3c2c1C(=O)c1ccccc1-3
> 30 µM (inactive) |  | CC[n+]1c(/C=C/C=C/N(C(C)=O)c2ccccc2)sc2ccccc21
> 30 µM (inactive) |  | CCCCN(CC)CCNC(=O)c1cc2c(-c3ccc(Cl)cc3)nn(C)c2s1
> 30 µM (inactive) |  | CCCSc1ncnc2sc(C)c(C)c12
> 30 µM (inactive) |  | CCN1CCN(Cc2ccc(NC(=O)c3cc(NC(=O)c4cncc(-c5cccs5)c4)cc(OC)c3)cc2C(F)(F)F)CC1
> 30 µM (inactive) |  | C#CCOCCOCCOCCNc1nc(N2CCN(C(=O)[C@H]([C@@H](C)CC)n3cc([C@@H](N)CC(C)C)nn3)CC2)nc(N2CCN(C(=O)[C@H](Cc3cc4ccccc4[nH]3)n3cc([C@@H](N)Cc4ccc(O)cc4)nn3)CC2)n1
> 30 µM (inactive) |  | CCCN(CCC)CCNC(=O)c1cc2c(-c3ccc(Cl)cc3)nn(C)c2s1
